Measured values taken from US6914045B2, “Glycopeptide antibiotics” (Wyeth Holdings Corporation, priority 2001, dated 2005).
≈ marks a conversion by molar mass, not a printed value.

Experiments:
Experiment in all cases: in vitro antibacterial evaluation, MIC by broth dilution
Format in all cases: cell-based
Conditions in all cases: broth dilution, 18 hours at 35° C.
Enterococcus sp. = tested on: Enterococcus sp.
Method in brief: (§1)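 Read-out: the lowest concentration at which the test strain fails to grow. Serial dilutions (64-0.06 μg/mL) in Muller-Hinton II […], 5×10^5 CFU/mL inoculum, NCCLS M7-A2 procedure.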

Staphylococcus sp. = tested on: Staphylococcus sp.
Method in brief: as §1

Streptococcus sp. = tested on: Streptococcus sp.
Method in brief: as §1

Escherichia coli = tested on: Escherichia coli
Method in brief: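 Broth dilution MIC per NCCLS M7-A2 in Mueller-Hinton II medium, inoculum 5×10^5 CFU/mL, antibiotic range 64-0.06 μg/mL. MIC taken as lowest concentration inhibiting growth.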

Structure (SMILES): CC(c1ccccc1)C1NC(=O)CNC(=O)C(CO)NC(=O)C(C(O)C2CNC(=N)N2C2OC(CO)C(O)C(O)C2O)NC(=O)C(C(O)C2CNC(=N)N2)NC(=O)C(Cc2ccc3oc(-c4ccc(C(=O)O)cc4)nc3c2)NC1=O (stereo not drawn) [Example 25, Cyclo[3-[2-(4-carboxyphenyl)-1,3-benzoxazol-5-yl]alanyl-3-(2-iminoimidazolidin-4-yl)seryl-3-(3-hexopyranosyl-2-iminoimidazolidin-4-yl)serylserylglycyl-β-methylphenylalanyl]]
- MIC Enterococcus faecalis (ATCC 29212) (Enterococcus sp.; strain ATCC 29212): >128 µg/mL
- MIC Enterococcus faecalis (GC 2242) (Enterococcus sp.; strain GC 2242): >128 µg/mL
- MIC Enterococcus faecium (GC 2243) (Enterococcus sp.; strain GC 2243): >128 µg/mL
- MIC Enterococcus faecalis (GC 2691) (Enterococcus sp.; strain GC 2691): >128 µg/mL
- MIC Enterococcus faecalis (GC 3059) (Enterococcus sp.; strain GC 3059): >128 µg/mL
- MIC Enterococcus faecalis (GC 4552) (Enterococcus sp.; strain GC 4552): >128 µg/mL
- MIC Enterococcus faecalis (GC 4553) (Enterococcus sp.; strain GC 4553): >128 µg/mL
- MIC Enterococcus faecalis (GC 4554) (Enterococcus sp.; strain GC 4554): >128 µg/mL
- MIC Enterococcus faecium (GC 4556) (Enterococcus sp.; strain GC 4556): >128 µg/mL
- MIC Enterococcus faecium (GC 4557) (Enterococcus sp.; strain GC 4557): 128 µg/mL (≈ 115 µM)
- MIC Enterococcus avium (GC 4558) (Enterococcus sp.; strain GC 4558): 128 µg/mL (≈ 115 µM)
- MIC Enterococcus faecalis (GC 6189) (Enterococcus sp.; strain GC 6189): >128 µg/mL
- MIC Staphylococcus aureus (ATCC 29213) (Staphylococcus sp.; strain ATCC 29213): >128 µg/mL
- MIC Staphylococcus aureus (GC 1131) (Staphylococcus sp.; strain GC 1131): >128 µg/mL
- MIC Staphylococcus aureus (GC 3051) (Staphylococcus sp.; strain GC 3051): >128 µg/mL
- MIC Staphylococcus aureus (GC 3053) (Staphylococcus sp.; strain GC 3053): >128 µg/mL
- MIC Staphylococcus aureus (GC 4541) (Staphylococcus sp.; strain GC 4541): >128 µg/mL
- MIC Staphylococcus aureus (GC 4542) (Staphylococcus sp.; strain GC 4542): >128 µg/mL
- MIC Staphylococcus aureus-SMITH (GC 4543) (Staphylococcus sp.; strain GC 4543): >128 µg/mL
- MIC Staphylococcus aureus (GC 4544) (Staphylococcus sp.; strain GC 4544): >128 µg/mL
- MIC Staphylococcus aureus (GC 4545) (Staphylococcus sp.; strain GC 4545): >128 µg/mL
- MIC Staphylococcus haemolyticus (GC 4546) (Staphylococcus sp.; strain GC 4546): >128 µg/mL
- MIC Coagulase Negative Staphylococcus (GC 4547) (Staphylococcus sp.; strain GC 4547): >128 µg/mL
- MIC Coagulase Negative Staphylococcus (GC 4548) (Staphylococcus sp.; strain GC 4548): >128 µg/mL
- MIC Coagulase Negative Staphylococcus (GC 4549) (Staphylococcus sp.; strain GC 4549): >128 µg/mL
- MIC Coagulase Negative Staphylococcus (GC 4551) (Staphylococcus sp.; strain GC 4551): >128 µg/mL
- MIC Coagulase Negative Staphylococcus (GC 6257) (Staphylococcus sp.; strain GC 6257): >128 µg/mL
- MIC Streptococcus pneumoniae (ATCC 6301) (Streptococcus sp.; strain ATCC 6301): >128 µg/mL
- MIC Streptococcus pneumoniae (GC 1894) (Streptococcus sp.; strain GC 1894): 128 µg/mL (≈ 115 µM)
- MIC Streptococcus pyogenes (GC 4563) (Streptococcus sp.; strain GC 4563): >128 µg/mL
- MIC Streptococcus agalactiae (GC 4564) (Streptococcus sp.; strain GC 4564): >128 µg/mL
- MIC Streptococcus pneumoniae (GC 4565) (Streptococcus sp.; strain GC 4565): >128 µg/mL
- MIC Escherichia coli (ATCC 25922) (Escherichia coli; strain ATCC 25922): >128 µg/mL
- MIC Escherichia coli (GC 4559) (Escherichia coli; strain GC 4559): >128 µg/mL
- MIC Escherichia coli (GC 4560) (Escherichia coli; strain GC 4560): >128 µg/mL
